# Legend:
# Type in all cases: biochemical
# [1] = target: T1, MMP-1 (Homo sapiens, UniProt P03956); experiment: In Vitro Collagenase Assay (MMP-1); details: human recombinant fibroblast collagenase
# T1 construct: human recombinant fibroblast collagenase (truncated, mw=18,828)
# T1 sequence (P03956 100-269 limits assumed): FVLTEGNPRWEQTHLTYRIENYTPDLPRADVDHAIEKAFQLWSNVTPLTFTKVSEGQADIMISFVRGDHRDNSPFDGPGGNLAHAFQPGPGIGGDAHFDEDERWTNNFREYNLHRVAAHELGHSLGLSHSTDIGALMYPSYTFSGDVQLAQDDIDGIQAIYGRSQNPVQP
# Excerpt: In Vitro Collagenase Assay
# This assay was based on the cleavage of a peptide substrate ((Dnp-Pro-Cha-Gly-Cys(Me)-His-Ala-Lys(NMa)-NH2), available from Peptide International, Inc.) by collagenase releasing the fluorescent NMa group which was quantitated on the fluorometer as disclosed in Bickett et al., "A High Throughput Fluorogenic Substrate for Interstitial Collagenase (MMP-1) and Gelatinase (MMP-9)", Anal. Biochem., 212:58-64, (1993). Dnp quenches the NMa fluorescence in the intact substrate.
# The assay was run in HCBC assay buffer (50 mM HEPES, pH 7.0, 5 mM Ca^+2, 0.02% Brij, 0.5% Cysteine), with human recombinant fibroblast collagenase (truncated, mw=18,828. from Wyeth-Ayerst Research, Radnor, Pa.). The substrate was dissolved in methanol and stored frozen in 1 mM aliquots. Collagenase was stored frozen in buffer in 25 μM aliquots. In conducting the assay, the substrate was dissolved in HCBC buffer to a final concentration of 10 μM and collagenase to a final concentration of 5 nM. The compounds being examined were dissolved in methanol, DMSO, or HCBC. The methanol and DMSO were diluted in HCBC to <1.0%. The compounds were added to a 96 well plate containing enzyme and the reaction was started by the addition of substrate.
# (§1) The reaction was read (excitation 340 nm, emission 444 nm) for 10 min. and the increase in fluorescence over time was plotted as a linear line. The slope of the line was calculated representing the reaction rate. The linearity of the reaction rate was confirmed (r^2 >0.85). The mean (x±sem) of the control rate was calculated and compared for statistical significance (p<0.05) with drug-treated rates using Dunnett's multiple comparison test.
# [2] = target: MMP-9 (Homo sapiens, UniProt P14780); experiment: In Vitro Gelatinase Assay (MMP-9); details: human neutrophil gelatinase B
# MMP-9, sequence (P14780 94-707): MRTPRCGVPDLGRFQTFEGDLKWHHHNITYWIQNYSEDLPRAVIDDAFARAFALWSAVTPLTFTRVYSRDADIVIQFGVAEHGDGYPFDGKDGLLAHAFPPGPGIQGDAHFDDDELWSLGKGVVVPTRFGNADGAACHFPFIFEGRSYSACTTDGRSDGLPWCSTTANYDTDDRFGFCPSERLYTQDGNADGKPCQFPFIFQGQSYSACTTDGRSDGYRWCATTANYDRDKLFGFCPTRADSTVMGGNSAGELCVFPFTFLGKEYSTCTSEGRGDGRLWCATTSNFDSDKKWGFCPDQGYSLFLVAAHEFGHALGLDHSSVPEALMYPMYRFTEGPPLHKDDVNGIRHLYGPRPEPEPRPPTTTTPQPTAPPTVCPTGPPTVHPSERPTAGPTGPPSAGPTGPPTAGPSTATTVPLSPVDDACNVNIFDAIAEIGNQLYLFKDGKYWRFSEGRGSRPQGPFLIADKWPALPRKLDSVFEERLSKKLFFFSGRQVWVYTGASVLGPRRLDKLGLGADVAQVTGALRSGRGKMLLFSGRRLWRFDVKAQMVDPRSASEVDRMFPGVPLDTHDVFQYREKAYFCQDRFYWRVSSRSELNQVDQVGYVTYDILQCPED
# Procedure: The enzyme activity is measured by the rate of the color increase. The thiopeptide substrate was made up fresh as a 20 mM stock in 100% DMSO and the DTNB was dissolved in 100% DMSO as a 100 mM stock and stored in the dark at room temperature. The substrate and the DTNB were diluted together to 1 mM with substrate buffer (50 mM HEPES, pH 7.5, 5 mM CaCl2) before use. […] The assay buffer, enzyme. […] The increase in OD405 was plotted and the slope of the line was calculated. The slope represents the reaction rate.
# [3] = target: MMP-13 (Homo sapiens, UniProt P45452); experiment: MMP-13 inhibition (Table 1); details: read-out: IC50 (nM) MMP-13
# [4] = target: T2, TACE (Homo sapiens, UniProt P78536); experiment: Procedure for Measuring TACE Inhibition
# T2 construct: purchased Immunex
# T2 sequence (P78536 215-824): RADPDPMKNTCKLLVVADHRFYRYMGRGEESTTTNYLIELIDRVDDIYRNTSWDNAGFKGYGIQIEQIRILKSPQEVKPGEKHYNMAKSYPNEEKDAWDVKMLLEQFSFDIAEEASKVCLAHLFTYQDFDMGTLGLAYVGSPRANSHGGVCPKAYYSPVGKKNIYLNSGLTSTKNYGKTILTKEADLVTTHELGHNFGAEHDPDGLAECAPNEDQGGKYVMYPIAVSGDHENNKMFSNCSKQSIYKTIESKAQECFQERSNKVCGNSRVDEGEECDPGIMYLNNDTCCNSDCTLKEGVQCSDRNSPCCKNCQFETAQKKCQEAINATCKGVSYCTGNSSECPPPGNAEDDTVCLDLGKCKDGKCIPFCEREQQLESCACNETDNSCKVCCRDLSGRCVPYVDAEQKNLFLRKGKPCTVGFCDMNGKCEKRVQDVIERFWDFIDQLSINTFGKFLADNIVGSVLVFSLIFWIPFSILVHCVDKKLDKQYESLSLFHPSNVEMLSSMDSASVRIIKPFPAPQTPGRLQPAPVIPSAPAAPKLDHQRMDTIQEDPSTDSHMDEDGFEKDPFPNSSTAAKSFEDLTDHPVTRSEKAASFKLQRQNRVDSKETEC
# Procedure: Procedure for Measuring TACE Inhibition
# The plates were incubated for 10 minutes at room temperature. The reaction was initiated by addition of a fluorescent peptidyl substrate (final concentration 100 μM) to each well with shaking on a shaker for 5 sec.
# as §1, with “420” for “444”, “and this represents” for “representing”, “The linearity of the reaction rate was confirmed (r^2 >0.85).” left out
Structure (SMILES),IC50 [1],IC50 [2],IC50 [3],IC50 [4]
"COc1ccc(S(=O)(=O)N2Cc3ccccc3N(S(=O)(=O)c3ccc(C)cc3)CC2C(=O)NO)cc1 (stereo not shown) [Example 2, 4-(4-Metboxybenzenesulfonyl)-1-(4-methylphenylsulfonyl)-2,3,4,5-tetrahydro-1H-[1,4]benzodiazepine-3-carboxylic acid, Hydroxyamide]",,14.1 nM,5.1 nM,391 nM
"COc1ccc(S(=O)(=O)N2Cc3ccccc3N(S(C)(=O)=O)CC2C(=O)NO)cc1 (stereo not shown) [Example 3, 1-Methanesulfonyl-4-(4-methoxybenzenesulfonyl)-2,3,4,5-tetrahydro-1H-[1,4]benzodiazepine-3-carboxylic acid, Hydroxyamide]",156 nM,7.9 nM,3 nM,104 ± 8 nM
"COc1ccc(S(=O)(=O)N2CC(C(=O)NO)N(S(=O)(=O)c3ccc(OC)cc3)Cc3ccccc32)cc1 (stereo not shown) [Example 4, 1,4-Bis-(4-Methoxybenzenesulfonyl)-2,3,4,5-tetrahydro-1H-[1,4]benzodiazepine-3-carboxylic acid, Hydroxyamide]",224 nM,12.2 nM,4.3 nM,101 ± 3 nM
"COCC(=O)N1CC(C(=O)NO)N(S(=O)(=O)c2ccc(OC)cc2)Cc2ccccc21 (stereo not shown) [Example 9, 1-Methoxyacetyl-4-(4-methoxybenzenesulfonyl)-2,3,4,5-tetrahydro-1H-[1,4]benzodiazepine-3-carboxylic acid, Hydroxyamide]",34.1 nM,1.34 nM,1.19 nM,95.2 nM
"CCCS(=O)(=O)N1CC(C(=O)NO)N(S(=O)(=O)c2ccc(OC)cc2)Cc2ccccc21 (stereo not shown) [Example 10, 4-(4-Methoxybenzenesulfonyl)-1-(propane-1-sulfonyl)-2,3,4,5-tetrahydro-1H-[1,4]benzodiazepine-3-carboxylic acid, Hydroxyamide]",183 nM,7 nM,2.8 nM,91 ± 10 nM
"COc1ccc(S(=O)(=O)N2Cc3ccccc3N(C(=O)c3cc(F)ccc3C)CC2C(=O)NO)cc1 (stereo not shown) [Example 11, 4-(4-Methoxybenzenesulfonyl)-1-(2-methyl-5-fluorobenzoyl)-2,3,4,5-tetrahydro-1H-[1,4]benzodiazepine-3-carboxylic acid, Hydroxyamide]",55.4 nM,3.9 nM,2.3 nM,271 nM
"COc1ccc(S(=O)(=O)N2Cc3ccccc3N(C(=O)c3ccc(Cl)cc3Cl)CC2C(=O)NO)cc1 (stereo not shown) [Example 31, 1-(2,4-Dichlorobenzoyl)-4-(4-methoxybenzenesulfonyl)-2,3,4,5-tetrahydro-1H-[1,4]benzodiazepine-3-carboxylic acid, Hydroxyamide]",75.5 nM,3 nM,2.6 nM,
"COc1ccc(S(=O)(=O)N2Cc3ccccc3N(C(=O)C3CC3)CC2C(=O)NO)cc1 (stereo not shown) [Example 55, 1-(Cyclopropylcarbonyl)-4-(4-methoxybenzenesulfonyl)-2,3,4,5-tetrahydro-1H-[1,4]benzodiazepine-3-carboxylic acid, Hydroxyamide]",171 nM,4 nM,,68.5 nM
"COc1ccc(S(=O)(=O)N2Cc3ccccc3N(C(=O)C3CCCCC3)CC2C(=O)NO)cc1 (stereo not shown) [Example 57, 1-(Cyclohexylcarbonyl)-4-(4-methoxybenzenesufonyl)-2,3,4,5-tetrahydro-1H-[1,4]benzodiazepine-3-carboxylic acid, Hydroxyamide]",465 nM,12.7 nM,,318 nM
"COCCN1CC(C(=O)NO)N(S(=O)(=O)c2ccc(OC)cc2)Cc2ccccc21 (stereo not shown) [Example 62, 4-(4-Methoxybenzenesulfonyl)-1-(2-methoxyetbyl)-2,3,4,5-tetrahydro-1H-[1,4]benzodiazepine-3-carboxylic acid, Hydroxyamide]",1000 nM,100 nM,100 nM,

# More lines, now with the values ahead:
IC50 [1],IC50 [2],IC50 [3],IC50 [4],Structure (SMILES)
96.2 nM,5.1 nM,3.7 nM,352 nM,"COc1ccc(S(=O)(=O)N2Cc3ccccc3N(C(=O)c3cccc(C(F)(F)F)c3)CC2C(=O)NO)cc1 (stereo not shown) [Example 1, 4-(4-Methoxybenzenesulfonyl)-1-(3-trifluoromethylbenzoyl)-2,3,4,5-tetrahydro-1H-[1,4]-benzodiazepine-3-carboxylic acid, Hydroxyamide]"
,0.56 nM,0.4 nM,95 ± 10 nM,"COc1ccc(S(=O)(=O)N2Cc3ccccc3N(C(=O)c3ccccc3)CC2C(=O)NO)cc1 (stereo not shown) [Example 5, 1-Benzoyl-4-(4-methoxybenzenesulfonyl)-2,3,4,5-tetrahydro-1H-[1,4]benzodiazepine-3-carboxylic acid, Hydroxyamide]"
18.4 nM,1.4 nM,1 nM,103 nM,"COc1ccc(S(=O)(=O)N2Cc3ccccc3N(C(C)=O)CC2C(=O)NO)cc1 (stereo not shown) [Example 6, 1-Acetyl-4-(4-methoxybenzenesulfonyl)-2,3,4,5-tetrahydro-1H-[1,4]benzodiazepine-3-carboxylic acid, Hydroxyamide]"
20.4 nM,0.6 nM,0.4 nM,77.7 nM,"COc1ccc(S(=O)(=O)N2Cc3ccccc3N(C(=O)c3cccnc3)CC2C(=O)NO)cc1 (stereo not shown) [Example 7, 4-(4-Methoxybenzenesulfonyl)-1-(3-pyridinylcarbonyl)-2,3,4,5-tetrahydro-1H-[1,4]benzodiazepine-3-carboxylic acid, Hydroxyamide]"
19.7 nM,,1.1 nM,,"COc1ccc(S(=O)(=O)N2Cc3ccccc3N(C(=O)c3cccs3)CC2C(=O)NO)cc1 (stereo not shown) [Example 8, 4-(4-Methoxybenzenesulfonyl)-1-(2-thienylcarbonyl)-2,3,4,5-tetrahydro-1H-[1,4]benzodiazepine-3-carboxylic acid, Hydroxyamide]"
523 nM,17.9 nM,,207 nM,"COc1ccc(S(=O)(=O)N2Cc3ccccc3N(C(=O)CCc3ccccc3)CC2C(=O)NO)cc1 (stereo not shown) [Example 12, 4-(4-Methoxybenzenesulfonyl)-1-(3-phenylpropionyl)-2,3,4,5-tetrahydro-1H-[1,4]benzodiazepine-3-carboxylic acid, Hydroxyamide]"
54.9 nM,9.8 nM,2 nM,154 nM,"COc1ccc(S(=O)(=O)N2Cc3ccccc3N(C(=O)c3ccncc3)CC2C(=O)NO)cc1 (stereo not shown) [Example 13, 4-(4-Methoxybenzenesulfonyl)-1-(4-pyridinylcarbonyl)-2,3,4,5-tetrahydro-1H-[1,4]benzodiazepine-3-carboxylic acid, Hydroxyamide]"
542 nM,12.6 nM,3.7 nM,,"COc1ccc(S(=O)(=O)N2Cc3ccccc3N(C(=O)c3ccccc3-c3ccccc3)CC2C(=O)NO)cc1 (stereo not shown) [Example 14, 1-([1,1'-Biphenyl]-2-carbonyl)-4-(4-methoxybenzenesulfonyl)-2,3,4,5-tetrahydro-1H-[1,4]benzodiazepine-3-carboxylic acid, Hydroxyamide]"
52.7 nM,0.7 nM,0.4 nM,199 nM,"COc1ccc(S(=O)(=O)N2Cc3ccccc3N(C(=O)c3ccc(-c4ccccc4)cc3)CC2C(=O)NO)cc1 (stereo not shown) [Example 15, 1-(4-Biphenylcarbonyl)-4-(4-methoxybenzenesulfonyl)-2,3,4,5-tetrahydro-1H-[1,4]benzodiazepine-3-carboxylic acid, Hydroxyamide]"
16.6 nM,1.4 nM,1.2 nM,28.5 nM,"COc1ccc(S(=O)(=O)N2Cc3ccccc3N(C(=O)c3ccco3)CC2C(=O)NO)cc1 (stereo not shown) [Example 40, 1-(2-Furanylcarbonyl)-4-(4-methoxybenzenesulfonyl)-2,3,4,5-tetrahydro-1H-[1,4]benzodiazepine-3-carboxylic acid, Hydroxyamide]"

# — patent US6071903A, “2,3,4,5-tetrahydro-1H-[1,4]-benzodiazepine-3-hydroxyamic acids” (American Cyanamid Company, priority 1999, dated 2000)
